Measured values taken from patent publication US8012959B2, “Diaminopyrimidinecarboxamide derivative” (Astellas Pharma Inc., priority 2002, dated 2011).

How the values were obtained:
[1] = system: T cells; experiment: Th2 differentiation (IL-4 production by differentiated mouse spleen T cells, ELISA); format: cell-based; details: inhibition of Th2 differentiation (IL-4 production, ELISA), C57BL/6 mouse spleen T cells
Procedure: Measurement of Th2 Differentiation
T cells were prepared by removing nylon wool (Wako Pure Chemical Industries)-adhering cells from C57BL/6 mouse (Charles River Japan) spleen cells. Using a 96 well plate to which an anti-CD3ε antibody (10 μg/ml) (Sederlane) had been immobilized in advance, T cells (2×10^5 cells/0.2 ml) were inoculated under stimulation with anti-CD28 antibody (1 μg/ml) (Pharmingen), IL-2 (10 ng/ml) (Peprotech) and IL-4 (10 ng/ml) (Peprotech). After 2 days of the culturing, total volume of the cell suspension was diluted to 2 ml with a medium containing IL-2 (10 ng/ml) and IL-4 (10 ng/ml). The differentiation was induced by further carrying out the culturing for 3 days. By counting the cell density, the cells after differentiation were adjusted to 1×10^6 cells/ml and inoculated into a 96 well plate immobilized with the anti-CD3 ε antibody, in order to induce IL-4 production. The supernatant after 24 hours of the stimulation was recovered, and the IL-4 production was determined by an ELISA method. The antibody used in the ELISA was purchased from Pharmingen. Also, an HRPO-labeled streptoavidin (Amersham Pharmacia) was used in the detection of biotinylated antibody, and a peroxidase color developing reagent (Sumitomo Bakelite) was used in the HRPO color development. In the case of the evaluation of compounds, compound dilutions were added to the wells before the addition of T cells, at the time of the dilution 2 days later, compounds equivalent to the initial concentration were added. Also, regarding the dilution of compounds, dilution was carried out using 10% FBS-containing RPMI 1640 such that the final concentration of DMSO in which each compound was dissolved became 0.1% or less. Inhibitory activity of each tested compound was evaluated in which the IL-4 production when DMSO was added instead of the compound was regarded as 100%, and the IL-4 production when anti-CD28 antibody and IL-4 were not added as 0%.

[2] = molecular target: T1, STAT 6 (Mus musculus, UniProt P52633); experiment: STAT 6-dependent reporter activity (IL-4-stimulated CI/FW4 luciferase reporter cell); format: cell-based, human
T1 construct: An STAT 6 reporter cell CI/FW4 was constructed by the above operation; endogenous in cells; host or cells: CI/FW4 (FW4 cell stably carrying the pGL2-CI/bs luciferase reporter)
T1 sequence (P52633 1-837): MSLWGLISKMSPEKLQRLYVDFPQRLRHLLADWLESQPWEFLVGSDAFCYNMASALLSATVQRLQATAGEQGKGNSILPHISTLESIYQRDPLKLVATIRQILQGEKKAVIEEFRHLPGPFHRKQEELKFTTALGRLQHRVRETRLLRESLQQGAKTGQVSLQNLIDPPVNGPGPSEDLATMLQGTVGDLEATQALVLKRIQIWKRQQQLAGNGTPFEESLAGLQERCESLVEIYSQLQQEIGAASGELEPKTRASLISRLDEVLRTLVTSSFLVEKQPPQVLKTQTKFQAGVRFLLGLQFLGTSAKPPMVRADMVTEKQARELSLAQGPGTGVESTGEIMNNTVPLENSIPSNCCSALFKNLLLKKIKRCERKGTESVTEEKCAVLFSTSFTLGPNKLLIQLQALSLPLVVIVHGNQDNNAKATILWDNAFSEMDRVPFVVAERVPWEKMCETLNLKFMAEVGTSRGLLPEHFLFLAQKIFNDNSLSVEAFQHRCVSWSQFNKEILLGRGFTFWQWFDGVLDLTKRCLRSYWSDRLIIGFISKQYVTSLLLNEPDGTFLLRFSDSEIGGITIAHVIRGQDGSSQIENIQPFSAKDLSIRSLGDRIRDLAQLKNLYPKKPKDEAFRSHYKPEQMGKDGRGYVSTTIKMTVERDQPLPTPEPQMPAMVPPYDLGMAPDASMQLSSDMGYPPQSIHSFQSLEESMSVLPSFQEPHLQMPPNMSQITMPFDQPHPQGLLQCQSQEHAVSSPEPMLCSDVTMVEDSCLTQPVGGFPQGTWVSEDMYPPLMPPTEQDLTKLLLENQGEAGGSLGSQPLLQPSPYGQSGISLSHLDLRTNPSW
Procedure: Measurement of STAT 6-Dependent Reporter Activity 1) Construction of STAT 6 Reactive Reporter Plasmid A STAT 6 reporter plasmid pGL2-CI was prepared by the following method. […] Also, […] sequence DNA molecules (SEQ ID NOs:3 and 4) contained in the adenovirus major late promoter were annealed and inserted into BglII and HindIII sites of the same vector. Thereafter, pGL2-CI/bs was constructed by inserting the blasticidin resistance gene of pUCSV-BD (Funakoshi) into BamHI site of the constructed pGL2-CI. 2) Construction of STAT 6 Reporter Cell Gene transfer of […] into a human IL-4 reactive cell FW4 cell (Mol. Cell. Biol., 14: 5433-5440) was carried out by the electroporation method (320 V, 960 μF/0.4 cm cuvette (Nippon Bio-Rad Laboratories)), and 6 μg/ml of blasticidin (Funakoshi) was added 40 hours thereafter to select a resistant cell. Confirmation of constant transfer of the reporter plasmid was carried out by detecting luciferase induce by IL-4 stimulation. An STAT 6 reporter cell CI/FW4 was constructed by the above operation. 3) STAT Reporter Assay Using CI/FW4 Cell Stimulation of the CI/FW4 cell (1×10^4 cells/0.1 ml) with 10 ng/ml of human IL-4 (Genzyme Techne) was carried out using a white 96 well plate (Nunc). In the case of the evaluation of compounds, compound dilutions were added to the wells before inoculating the cells into the 96 well plate. […] Thereafter, 50 μl of a luciferase substrate solution (10 mM Tris-HCl pH 7.8, 5 mM luciferin, 2 mM coenzyme A, 2 mM ATP, 0.5 mM MgCl2 and 2 mM Mg(OH)2) was added, followed by stirring for 1 minute. Then, the luciferase activity was measured using ML3000 luminometer (Dynatech Laboratories, Inc). Inhibitory activities of tested compounds were evaluated in which the luminescence intensity (relative light unit: […] The results are shown in the following Table 26.

inhibition at 0.1 µM ([2]; inhibition ratio at 0.1 μM compound, IL-4-stimulated CI/FW4 cell, luciferase) | inhibition at 1 µM ([2]; inhibition ratio at 1 μM compound, IL-4-stimulated CI/FW4 cell, luciferase) | inhibition of STAT 6-dependent reporter activity (activity similar to the compounds of Table 26) ([2]; CI/FW4 cell, 10 ng/ml human IL-4, luciferase) | Structure (SMILES) | Inh (%) [1]
 |  |  | Cc1cccc(Nc2nc(N[C@@H]3CCCC[C@@H]3N)ncc2C(N)=O)c1 (relative stereo) [ref 2, 2-(cis-2-aminocyclohexylamino)-4-(3-methylanilino)pyrimidine-5-carboxamide, reference compound] | 0%
89% | 100% |  | NC(=O)c1cnc(NCCc2ccc(O)c(Cl)c2)nc1NCc1ccccc1 [Example 1, 4-benzylamino-2-{[2-(3-chloro-4-hydroxyphenyl)ethyl]amino}pyrimidine-5-carboxamide] | 88%
 |  | good activity | NC(=O)c1cnc(NCCc2cc(Cl)c(O)c(Cl)c2)nc1NCc1ccccc1 [Example 16] | 82%
 |  |  | Cc1cccc(Nc2nc(NCCN)ncc2C(N)=O)c1 [ref 1, 2-(2-aminoethylamino)-4-(3-methylanilino)pyrimidine-5-carboxamide, reference compound] | 0%
